Where two headings read alike, the source gives them in different places.
Legend:
Assay in all cases: Test E pre-/postemergence plant response
Format in all cases: in vivo
[1] = tested on: speedwell (bird's-eye speedwell, Veronica persica); conditions: scale 0 to 100, read-out: Plant response rating, Speedwell; for pest or weed control at 16 g/ha: 16 g ai/ha; for pest or weed control at 62 g/ha: 62 g ai/ha; for pest or weed control at 125 g/ha: 125 g ai/ha
In short: (§1)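 Visual scores on a 0–100 scale (100 = complete control) were assigned against untreated controls 7–21 days after treatment in a controlled environment. Compounds, formulated with solvent plus surfactant, were applied to pre-emergence silt-loam sowings or to 1- to 4-leaf plants (2–18 cm) in potting medium.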

[2] = tested on: bluegrass (annual bluegrass, Poa annua); conditions: scale 0 to 100, read-out: Plant response rating, Bluegrass; for pest or weed control at 16 g/ha: 16 g ai/ha; for pest or weed control at 31 g/ha: 31 g ai/ha; for pest or weed control at 62 g/ha: 62 g ai/ha; for pest or weed control at 125 g/ha: 125 g ai/ha
In short: as §1

[3] = tested on: spring wheat (Triticum aestivum); conditions: scale 0 to 100, read-out: Plant response rating, Wheat, Spring; for plant injury at 16 g/ha: 16 g ai/ha; for plant injury at 62 g/ha: 62 g ai/ha; for plant injury at 125 g/ha: 125 g ai/ha
In short: as §1

[4] = tested on: field poppy (Papaver rhoeas); conditions: scale 0 to 100, read-out: Plant response rating, Field Poppy; for pest or weed control at 16 g/ha: 16 g ai/ha; for pest or weed control at 31 g/ha: 31 g ai/ha; for pest or weed control at 62 g/ha: 62 g ai/ha; for pest or weed control at 125 g/ha: 125 g ai/ha
In short: as §1

[5] = tested on: winter wheat (Triticum aestivum); conditions: scale 0 to 100, read-out: Plant response rating, Wheat, Winter; for plant injury at 16 g/ha: 16 g ai/ha; for plant injury at 62 g/ha: 62 g ai/ha; for plant injury at 125 g/ha: 125 g ai/ha
In short: as §1

[6] = tested on: oilseed rape (Brassica napus); conditions: scale 0 to 100, read-out: Plant response rating, Oilseed Rape; for plant injury at 16 g/ha: 16 g ai/ha; for plant injury at 31 g/ha: 31 g ai/ha; for plant injury at 62 g/ha: 62 g ai/ha; for plant injury at 125 g/ha: 125 g ai/ha
In short: as §1

[7] = tested on: green foxtail (Setaria viridis); conditions: scale 0 to 100, read-out: Plant response rating, Foxtail, Green; for pest or weed control at 16 g/ha: 16 g ai/ha; for pest or weed control at 31 g/ha: 31 g ai/ha; for pest or weed control at 62 g/ha: 62 g ai/ha; for pest or weed control at 125 g/ha: 125 g ai/ha
In short: as §1

kochia (Kochia scoparia) = conditions: Bassia scoparia, scale 0 to 100, read-out: Plant response rating, Kochia; for pest or weed control at 16 g/ha: 16 g ai/ha; for pest or weed control at 31 g/ha: 31 g ai/ha; for pest or weed control at 62 g/ha: 62 g ai/ha; for pest or weed control at 125 g/ha: 125 g ai/ha
In short: as §1

[8] = tested on: chamomile (scentless chamomile, Matricaria inodora); conditions: Tripleurospermum inodorum, post-emergence, Postemergence, scale 0 to 100, read-out: Plant response rating, Chamomile
In short: as §1

[9] = tested on: wild mustard (Sinapis arvensis); conditions: Brassica, scale 0 to 100, read-out: Plant response rating, Mustard, Wild; for pest or weed control at 16 g/ha: 16 g ai/ha; for pest or weed control at 31 g/ha: 31 g ai/ha; for pest or weed control at 62 g/ha: 62 g ai/ha; for pest or weed control at 125 g/ha: 125 g ai/ha
In short: as §1

[10] = tested on: downy bromegrass (Bromus tectorum); conditions: scale 0 to 100, read-out: Plant response rating, Bromegrass, Downy; for pest or weed control at 16 g/ha: 16 g ai/ha; for pest or weed control at 31 g/ha: 31 g ai/ha; for pest or weed control at 62 g/ha: 62 g ai/ha; for pest or weed control at 125 g/ha: 125 g ai/ha
In short: as §1

[11] = post-emergence, 31 g ai/ha, Postemergence

Structure (SMILES): Fc1cccc(Oc2ncc(Cl)cn2)c1-c1cc(C(F)(F)F)on1 [Compound 168, 5-chloro-2-[2-[5-(trifluoromethyl)-3-isoxazolyl]-3-fluorophenoxy]pyrimidine]
- pest or weed control at 16 g/ha ([1]; post-emergence, Postemergence): 80%
- pest or weed control at 31 g/ha [1, 11]: 75%
- pest or weed control at 62 g/ha ([1]; post-emergence, Postemergence): 90%
- pest or weed control at 125 g/ha ([1]; post-emergence, Postemergence): 100%
- pest or weed control at 16 g/ha ([1]; pre-emergence, Preemergence): 100%
- pest or weed control at 62 g/ha ([1]; pre-emergence, Preemergence): 100%
- pest or weed control at 125 g/ha ([1]; pre-emergence, Preemergence): 100%
- pest or weed control at 16 g/ha ([2]; post-emergence, Postemergence): 10%
- pest or weed control at 31 g/ha ([2]; post-emergence, Postemergence): 5%
- pest or weed control at 62 g/ha ([2]; post-emergence, Postemergence): 10%
- pest or weed control at 125 g/ha ([2]; post-emergence, Postemergence): 15%
- pest or weed control at 16 g/ha ([2]; pre-emergence, Preemergence): 0%
- pest or weed control at 31 g/ha ([2]; pre-emergence, Preemergence): 10%
- pest or weed control at 62 g/ha ([2]; pre-emergence, Preemergence): 80%
- pest or weed control at 125 g/ha ([2]; pre-emergence, Preemergence): 100%
- plant injury at 16 g/ha ([3]; post-emergence, Postemergence): 10%
- plant injury at 31 g/ha [3, 11]: 20%
- plant injury at 62 g/ha ([3]; post-emergence, Postemergence): 25%
- plant injury at 125 g/ha ([3]; post-emergence, Postemergence): 40%
- plant injury at 16 g/ha ([3]; pre-emergence, Preemergence): 15%
- plant injury at 62 g/ha ([3]; pre-emergence, Preemergence): 20%
- plant injury at 125 g/ha ([3]; pre-emergence, Preemergence): 30%
- pest or weed control at 16 g/ha ([4]; post-emergence, Postemergence): 55%
- pest or weed control at 31 g/ha ([4]; post-emergence, Postemergence): 85%
- pest or weed control at 62 g/ha ([4]; post-emergence, Postemergence): 100%
- pest or weed control at 125 g/ha ([4]; post-emergence, Postemergence): 100%
- pest or weed control at 16 g/ha ([4]; pre-emergence, Preemergence): 80%
- pest or weed control at 31 g/ha ([4]; pre-emergence, Preemergence): 100%
- pest or weed control at 62 g/ha ([4]; pre-emergence, Preemergence): 100%
- pest or weed control at 125 g/ha ([4]; pre-emergence, Preemergence): 100%
- plant injury at 16 g/ha ([5]; post-emergence, Postemergence): 5%
- plant injury at 31 g/ha [5, 11]: 10%
- plant injury at 62 g/ha ([5]; post-emergence, Postemergence): 25%
- plant injury at 125 g/ha ([5]; post-emergence, Postemergence): 35%
- plant injury at 16 g/ha ([5]; pre-emergence, Preemergence): 5%
- plant injury at 62 g/ha ([5]; pre-emergence, Preemergence): 10%
- plant injury at 125 g/ha ([5]; pre-emergence, Preemergence): 30%
- plant injury at 16 g/ha ([6]; post-emergence, Postemergence): 70%
- plant injury at 31 g/ha ([6]; post-emergence, Postemergence): 85%
- plant injury at 62 g/ha ([6]; post-emergence, Postemergence): 95%
- plant injury at 125 g/ha ([6]; post-emergence, Postemergence): 100%
- plant injury at 16 g/ha ([6]; pre-emergence, Preemergence): 10%
- plant injury at 31 g/ha ([6]; pre-emergence, Preemergence): 40%
- plant injury at 62 g/ha ([6]; pre-emergence, Preemergence): 65%
- plant injury at 125 g/ha ([6]; pre-emergence, Preemergence): 100%
- pest or weed control at 16 g/ha ([7]; post-emergence, Postemergence): 20%
- pest or weed control at 31 g/ha ([7]; post-emergence, Postemergence): 60%
- pest or weed control at 62 g/ha ([7]; post-emergence, Postemergence): 60%
- pest or weed control at 125 g/ha ([7]; post-emergence, Postemergence): 75%
- pest or weed control at 16 g/ha ([7]; pre-emergence, Preemergence): 10%
- pest or weed control at 31 g/ha ([7]; pre-emergence, Preemergence): 100%
- pest or weed control at 62 g/ha ([7]; pre-emergence, Preemergence): 100%
- pest or weed control at 125 g/ha ([7]; pre-emergence, Preemergence): 100%
- pest or weed control at 16 g/ha (kochia (Kochia scoparia); post-emergence, Postemergence): 80%
- pest or weed control at 31 g/ha (kochia (Kochia scoparia); post-emergence, Postemergence): 80%
- pest or weed control at 62 g/ha (kochia (Kochia scoparia); post-emergence, Postemergence): 85%
- pest or weed control at 125 g/ha (kochia (Kochia scoparia); post-emergence, Postemergence): 85%
- pest or weed control at 16 g/ha (kochia (Kochia scoparia); pre-emergence, Preemergence): 35%
- pest or weed control at 31 g/ha (kochia (Kochia scoparia); pre-emergence, Preemergence): 100%
- pest or weed control at 62 g/ha (kochia (Kochia scoparia); pre-emergence, Preemergence): 100%
- pest or weed control at 125 g/ha (kochia (Kochia scoparia); pre-emergence, Preemergence): 100%
- pest or weed control at 16 g/ha ([8]; 16 g ai/ha): 5%
- pest or weed control at 31 g/ha ([8]; 31 g ai/ha): 5%
- pest or weed control at 62 g/ha ([8]; 62 g ai/ha): 10%
- pest or weed control at 125 g/ha ([8]; 125 g ai/ha): 10%
- pest or weed control at 16 g/ha ([9]; post-emergence, Postemergence): 75%
- pest or weed control at 31 g/ha ([9]; post-emergence, Postemergence): 95%
- pest or weed control at 62 g/ha ([9]; post-emergence, Postemergence): 95%
- pest or weed control at 125 g/ha ([9]; post-emergence, Postemergence): 95%
- pest or weed control at 16 g/ha ([9]; pre-emergence, Preemergence): 80%
- pest or weed control at 31 g/ha ([9]; pre-emergence, Preemergence): 80%
- pest or weed control at 62 g/ha ([9]; pre-emergence, Preemergence): 95%
- pest or weed control at 125 g/ha ([9]; pre-emergence, Preemergence): 100%
- pest or weed control at 16 g/ha ([10]; post-emergence, Postemergence): 5%
- pest or weed control at 31 g/ha ([10]; post-emergence, Postemergence): 15%
- pest or weed control at 62 g/ha ([10]; post-emergence, Postemergence): 25%
- pest or weed control at 125 g/ha ([10]; post-emergence, Postemergence): 35%
- pest or weed control at 16 g/ha ([10]; pre-emergence, Preemergence): 0%
- pest or weed control at 31 g/ha ([10]; pre-emergence, Preemergence): 10%
- pest or weed control at 62 g/ha ([10]; pre-emergence, Preemergence): 10%
- pest or weed control at 125 g/ha ([10]; pre-emergence, Preemergence): 40%
